Laboratory results reported in the supplement of paper PMC10307832.

How the values were obtained:
Test in all cases: relative viability (nuclei count vs DMSO), 5 days (fraction); higher = more cells survive
VX-11e + Bortezomib = compound: CC1=CN=C(N=C1C2=CNC(=C2)C(=O)N[C@H](CO)C3=CC(=CC=C3)Cl)NC4=C(C=C(C=C4)F)Cl [VX-11e] + CC(C)C[C@H](NC(=O)[C@H](Cc1ccccc1)NC(=O)c1cnccn1)B(O)O [Bortezomib] (partner 0.002 µM)
Outline: (§1)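 Medians of duplicate plates are given as relative viability. That measure is the nuclei count in treated wells divided by the count in vehicle wells. Counts were taken on 4× images of lung cancer cell lines in 1536-well plates, 5 days after pin-tool dosing the day after seeding with one drug alone or a fixed anchor-drug dose plus five library-drug doses (not always all listed) in √10 steps.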

VX-11e + Trametinib = compound: CC1=CN=C(N=C1C2=CNC(=C2)C(=O)N[C@H](CO)C3=CC(=CC=C3)Cl)NC4=C(C=C(C=C4)F)Cl [VX-11e] + CC(=O)Nc1cccc(-n2c(=O)n(C3CC3)c(=O)c3c(Nc4ccc(I)cc4F)n(C)c(=O)c(C)c32)c1 [Trametinib] (partner 0.02 µM)
Outline: as §1

VX-11e + Olaparib = compound: CC1=CN=C(N=C1C2=CNC(=C2)C(=O)N[C@H](CO)C3=CC(=CC=C3)Cl)NC4=C(C=C(C=C4)F)Cl [VX-11e] + O=C(c1cc(Cc2n[nH]c(=O)c3ccccc23)ccc1F)N1CCN(C(=O)C2CC2)CC1 [Olaparib] (partner 8 µM)
Outline: as §1

VX-11e + Pictilisib = compound: CC1=CN=C(N=C1C2=CNC(=C2)C(=O)N[C@H](CO)C3=CC(=CC=C3)Cl)NC4=C(C=C(C=C4)F)Cl [VX-11e] + CS(=O)(=O)N1CCN(Cc2cc3nc(-c4cccc5[nH]ncc45)nc(N4CCOCC4)c3s2)CC1 [Pictilisib] (partner 1 µM)
Outline: as §1

Row | Cell Line | relative viability (VX-11e + Bortezomib; first compound 0.04 µM) | relative viability (VX-11e + Bortezomib; first compound 0.1265 µM) | relative viability (VX-11e + Bortezomib; first compound 1.265 µM) | relative viability (VX-11e + Bortezomib; first compound 4 µM) | relative viability (VX-11e + Trametinib; first compound 0.04 µM) | relative viability (VX-11e + Trametinib; first compound 0.1265 µM) | relative viability (VX-11e + Trametinib; first compound 1.265 µM) | relative viability (VX-11e + Trametinib; first compound 4 µM) | relative viability (VX-11e + Olaparib; first compound 0.04 µM) | relative viability (VX-11e + Olaparib; first compound 0.1265 µM) | relative viability (VX-11e + Olaparib; first compound 1.265 µM) | relative viability (VX-11e + Olaparib; first compound 4 µM) | relative viability (VX-11e + Pictilisib; first compound 0.04 µM) | relative viability (VX-11e + Pictilisib; first compound 0.1265 µM) | relative viability (VX-11e + Pictilisib; first compound 1.265 µM) | relative viability (VX-11e + Pictilisib; first compound 4 µM) | relative viability (VX-11e + Bortezomib; first compound 0.4 µM) | relative viability (VX-11e + Trametinib; first compound 0.4 µM) | relative viability (VX-11e + Olaparib; first compound 0.4 µM) | relative viability (VX-11e + Pictilisib; first compound 0.4 µM)
1 | LOU-NH91 | 0.494 | 0.502 | 0.486 | 0.457 | 0.813 | 0.73 | 0.768 | 0.691 | 0.887 | 0.884 | 0.901 | 0.839 | 0.474 | 0.54 | 0.501 | 0.504 |  |  |  | 
2 | LU99A | 0.965 | 0.984 | 0.284 | 0.239 | 0.504 | 0.316 | 0.272 | 0.258 | 0.248 | 0.247 | 0.226 | 0.221 | 0.285 | 0.283 | 0.278 | 0.155 | 0.769 | 0.421 | 0.298 | 0.385
3 | LXF-289 | 1.07 | 0.96 | 0.734 | 0.665 | 0.729 | 0.652 | 0.626 | 0.498 | 1.15 | 0.997 | 1.01 | 0.736 | 0.785 | 0.754 | 0.686 | 0.333 | 0.764 |  |  | 0.66
4 | NCI-H23 | 0.911 | 0.81 | 0.935 | 0.367 | 0.276 | 0.339 | 0.223 | 0.219 | 0.292 | 0.366 | 0.324 | 0.186 | 0.35 | 0.437 | 0.31 | 0.19 | 0.25 | 0.287 | 0.359 | 0.176
5 | NCI-H322M | 1.08 |  | 1.09 | 0.987 | 0.468 | 0.484 | 0.586 | 0.46 | 0.705 | 0.71 | 0.752 | 0.54 | 0.496 |  | 0.439 | 0.389 | 1.24 | 0.426 | 0.525 | 0.453
6 | NCI-H441 | 0.54 | 0.436 | 0.963 | 0.432 | 0.448 | 0.485 | 0.278 | 0.325 | 0.553 | 0.572 | 0.702 | 0.591 | 0.349 | 0.518 | 0.371 | 0.24 |  |  |  | 
7 | NCI-H460 | 1.15 | 0.986 | 0.648 | 0.102 | 0.134 | 0.161 | 0.0437 | 0.0311 | 0.427 | 0.429 | 0.315 | 0.236 | 0.306 | 0.27 | 0.173 | 0.1 | 0.91 | 0.0116 |  | 0.141
8 | NCI-H520 | 0.621 | 0.49 | 0.486 | 0.474 | 0.647 | 0.668 | 0.481 | 0.22 | 0.383 | 0.327 | 0.298 | 0.271 | 0.267 | 0.276 | 0.274 | 0.336 | 0.636 | 0.528 | 0.326 | 0.34
